According to ChEMBL document CHEMBL3046961, “Fungicidal activity of 12-propoxyimino-1, 15-pentadecanlactam on selected crops” (Crop Prot, 2009):

What was measured:
[1] = Acute oral toxicity in Rattus norvegicus (rat); assay type: organism-based; details: in vivo
[2] = Biodistribution in Gossypium hirsutum (cotton) plant leaf at 500 mg/L after 4 hr; assay type: ADME, organism-based; details: read-out: Drug uptake
[3] = Biodistribution in Gossypium hirsutum (cotton) plant root at 500 mg/L after 24 hr; assay type: ADME, organism-based; details: read-out: Drug uptake
[4] = Biodistribution in Gossypium hirsutum (cotton) plant root at 500 mg/L after 16 hr; assay type: ADME, organism-based; details: read-out: Drug uptake
[5] = Biodistribution in Gossypium hirsutum (cotton) plant leaf at 500 mg/L after 16 hr; assay type: ADME, organism-based; details: read-out: Drug uptake
Oryctolagus cuniculus [6] = organism: Oryctolagus cuniculus; test: Toxicity in Oryctolagus cuniculus (rabbit) assessed as eye irritation; assay type: organism-based; details: in vivo
[7] = Biodistribution in Gossypium hirsutum (cotton) plant stem at 500 mg/L after 48 hr; assay type: ADME, organism-based; details: read-out: Drug uptake
Rhizoctonia solani [8] = test: Antifungal activity against Rhizoctonia solani in five-leaf stage of cucumber growing soil at 315 g/ha treated 48 hr before inoculation measured after 6 days relative to control by pot culture test; assay type: functional
[9] = Biodistribution in Gossypium hirsutum (cotton) plant leaf at 500 mg/L after 48 hr; assay type: ADME, organism-based; details: read-out: Drug uptake
[10] = Biodistribution in Gossypium hirsutum (cotton) plant stem at 500 mg/L after 36 hr; assay type: ADME, organism-based; details: read-out: Drug uptake
Botrytis cinerea [11] = test: Antifungal activity against Botryotinia fuckeliana in seven to eight-leaf stage of tomato plant at 315 g/ha treated 24 hr before inoculation measured after 5 days relative to control; assay type: functional
Botrytis cinerea [12] = test: Antifungal activity against Botryotinia fuckeliana in cucumber plant at 281 g/ha treated 2 times in 6 days interval measured after 7 days last treatment relative to control; assay type: functional
Oryctolagus cuniculus [13] = organism: Oryctolagus cuniculus; test: Toxicity in Oryctolagus cuniculus (rabbit) assessed as skin irritation; assay type: organism-based; details: in vivo
Botrytis cinerea [14] = test: Antifungal activity against Botryotinia fuckeliana in seven to eight-leaf stage of tomato plant at 504 g/ha treated 24 hr before inoculation measured after 5 days relative to control; assay type: functional
[15] = Biodistribution in Gossypium hirsutum (cotton) plant stem at 500 mg/L after 8 hr; assay type: ADME, organism-based; details: read-out: Drug uptake
[16] = Biodistribution in Gossypium hirsutum (cotton) plant root at 500 mg/L after 4 hr; assay type: ADME, organism-based; details: read-out: Drug uptake
Rhizoctonia solani [17] = test: Antifungal activity against Rhizoctonia solani in five-leaf stage of cucumber growing soil at 168 g/ha treated 48 hr before inoculation measured after 6 days relative to control by pot culture test; assay type: functional
Botrytis cinerea [18] = test: Antifungal activity against Botryotinia fuckeliana in seven to eight-leaf stage of tomato plant at 168 g/ha treated 24 hr before inoculation measured after 5 days relative to control; assay type: functional
[19] = Biodistribution in Gossypium hirsutum (cotton) plant root at 500 mg/L after 36 hr; assay type: ADME, organism-based; details: read-out: Drug uptake
[20] = Biodistribution in Gossypium hirsutum (cotton) plant stem at 500 mg/L after 4 hr; assay type: ADME, organism-based; details: read-out: Drug uptake
[21] = Biodistribution in Gossypium hirsutum (cotton) plant stem at 500 mg/L after 16 hr; assay type: ADME, organism-based; details: read-out: Drug uptake
Botrytis cinerea [22] = test: Antifungal activity against Botryotinia fuckeliana in cucumber plant at 450 g/ha treated 2 times in 6 days interval measured after 7 days last treatment relative to control; assay type: functional
[23] = Biodistribution in Gossypium hirsutum (cotton) plant root at 500 mg/L after 48 hr; assay type: ADME, organism-based; details: read-out: Drug uptake
[24] = Biodistribution in Gossypium hirsutum (cotton) plant leaf at 500 mg/L after 8 hr; assay type: ADME, organism-based; details: read-out: Drug uptake
[25] = Biodistribution in Gossypium hirsutum (cotton) plant root at 500 mg/L after 8 hr; assay type: ADME, organism-based; details: read-out: Drug uptake
[26] = Biodistribution in Gossypium hirsutum (cotton) plant leaf at 500 mg/L after 36 hr; assay type: ADME, organism-based; details: read-out: Drug uptake
[27] = Acute dermal toxicity in Rattus norvegicus (rat); assay type: organism-based, Skin of body; details: in vivo, topical or ocular
Rhizoctonia solani [28] = test: Antifungal activity against Rhizoctonia solani in five-leaf stage of cucumber growing soil at 504 g/ha treated 48 hr before inoculation measured after 6 days relative to control by pot culture test; assay type: functional
[29] = Biodistribution in Gossypium hirsutum (cotton) plant leaf at 500 mg/L after 24 hr; assay type: ADME, organism-based; details: read-out: Drug uptake
[30] = Biodistribution in Gossypium hirsutum (cotton) plant stem at 500 mg/L after 24 hr; assay type: ADME, organism-based; details: read-out: Drug uptake
Botrytis cinerea [31] = test: Antifungal activity against Botryotinia fuckeliana in seven to eight-leaf stage of tomato plant at 563 g/ha treated 24 hr before inoculation measured after 5 days relative to control; assay type: functional
Rhizoctonia solani [32] = test: Antifungal activity against Rhizoctonia solani in five-leaf stage of cucumber growing soil at 450 g/ha treated 48 hr before inoculation measured after 6 days relative to control by pot culture test; assay type: functional

For `CCCON=C1CCCCCCCCCCC(=O)NCCC1`, the LD50 [1] was greater than 5000 mg/kg, the concentration at 4 h [2] was 40 ng/g and the concentration at 24 h [3] was 98000 ng/g. The concentration at 16 h [4] was 97000 ng/g, the concentration at 16 h [5] was 330 ng/g and the LD50 (Oryctolagus cuniculus [6]) was “Toxic”. The concentration at 48 h [7] was 5120 ng/g, the Activity (Rhizoctonia solani [8]) was 53.46% and the concentration at 48 h [9] was 2530 ng/g. The concentration at 36 h [10] was 8950 ng/g, the Activity (Botrytis cinerea [11]) was 85.82% and the Activity (Botrytis cinerea [12]) was 89.51%. For the same molecule, the LD50 (Oryctolagus cuniculus [13]) was “Non-toxic”, the Activity (Botrytis cinerea [14]) was 87.51% and the concentration at 8 h [15] was 870 ng/g. It also gave a concentration at 4 h [16] of 54400 ng/g, an Activity (Rhizoctonia solani [17]) of 38.99% and an Activity (Botrytis cinerea [18]) of 80.67%. The concentration at 36 h [19] was 116000 ng/g, the concentration at 4 h [20] was 190 ng/g and the concentration at 16 h [21] was 2710 ng/g. For the same molecule, the Activity (Botrytis cinerea [22]) was 95.14%, the concentration at 48 h [23] was 137000 ng/g and the concentration at 8 h [24] was 110 ng/g. The concentration at 8 h [25] was 66700 ng/g, the concentration at 36 h [26] was 2930 ng/g and the LD50 [27] was greater than 2000 mg/kg. For the same molecule, the Activity (Rhizoctonia solani [28]) was 73.59%, the concentration at 24 h [29] was 890 ng/g and the concentration at 24 h [30] was 4270 ng/g.
`CC(C)NC(=O)N1CC(=O)N(c2cc(Cl)cc(Cl)c2)C1=O` [IPRODIONE] gave an Activity (Botrytis cinerea [31]) of 90.39%.
In the case of `CN(C)C(=S)SSC(=S)N(C)C` [THIRAM], the Activity (Rhizoctonia solani [32]) was 42.14%.
